Results: patent US6838237B2, “Antigenically reactive regions of the hepatitis a virus polyprotein” (The United States of America as represented by the …, priority 1996, dated 2005)
Where “and” joins values, the source holds several entries; their conditions need not be identical. Identical values can stand only once.

Assays:
[1] = test system: anti-HAV-negative sera; assay: EIA for anti-HAV: synthetic peptides reacted with anti-HAV-negative sera; assay type: binding, human; conditions: experiment 1: sera 1:100, cutoff P/N 3.0
Text: (§1) All anti-HAV-positive and anti-HAV-negative sera were randomly selected from a collection reposited at the Centers for Disease Control and Prevention, Atlanta, Ga. Serum specimens were collected from anti-HAV-positive patients with acute liver disease. Anti-HAV-negative serum specimens were collected from normal blood donors. All sera were initially tested by commercially available kit for the presence of anti-HAV activity (HAVAB and HAVAB-M, Abbott Laboratories, Abbott Park, Ill.)
(§2) Synthetic peptides (110 ml) at a concentration of 10 mg/ml in 0.1 M phosphate-buffered saline (PBS), pH 7.5, were adsorbed to microtiter wells (Immulon II, Dynatech Laboratories, Inc.) at room temperature for 12 h. Sera were diluted in PBS containing 0.1% Tween 20 and 10% normal goat serum (PBS-T) and 100 ml were added to each well, incubated for 60 min at 37E C, and washed with PBS containing Tween-20. […] Two different cutoffs were established for experiments 1 and 2. In experiment 1, the cutoff, expressed as a P/N ratio and equal to 3.0, was statistically established as the mean of negative controls plus at least 3.5 standard deviations (SD) above the mean, where P represents the optical density value at 493 nm (OD493) of anti-HAV-positive specimens and N represents the optical density value of negative controls. In experiment 2, a different cutoff was used to ensure statistical reliability and accurate interpretation of positive results. In this case, in addition to anti-HAV-negative sera, two irrelevant synthetic peptides were used as supplemental negative controls to determine the degree of nonspecific binding of anti-HAV sera to synthetic peptides. One cutoff, expressed as a P/N ratio and equal to 3.0, corresponded to the mean of negative serum controls plus at least 3.5 SD above the mean. A second cutoff was also expressed as a P/N ratio, where P represents the optical density value at 493 nm (OD493) for HAV peptides immunoreacting with anti-HAV-positive specimens and N represents the optical density value obtained with the irrelevant peptides. The second cutoff was equal 2.0 and corresponded to the mean of OD values obtained with the irrelevant peptides plus at least 3.5 SD above the mean. Synthetic peptides were considered immunoreactive with anti-HAV serum specimens only when both cutoffs were satisfied.

[2] = test system: anti-HAV-positive sera; assay: EIA for anti-HAV: synthetic peptides adsorbed to wells, reacted with anti-HAV-positive acute sera; assay type: binding, human; conditions: for Reactivity with acute sera (reactive/tested): experiment 1: sera 1:100, anti-human IgG-HRP, cutoff P/N 3.0; for Reactivity with acute sera (percent of sera reactive): experiment 1: sera 1:100, cutoff P/N 3.0; for P/N for acute sera (mean) / P/N for acute sera (range, in parentheses) / P/N for acute sera (individual values): experiment 1; for P/N for acute sera (mean) / P/N for acute sera (range, in parentheses): OD493 positive/negative ratio of reactive sera; for P/N for acute sera (individual values): single sera listed with semicolon
Text: as §1, §2

Sequence	Reactivity with negative sera (reactive/tested) [1]	immunoreactivity with anti-HAV-positive sera (in words) [2]	Reactivity with acute sera (reactive/tested) [2]	Reactivity with acute sera (percent of sera reactive) [2] [%]	P/N for acute sera (mean) [2]	P/N for acute sera (range, in parentheses) [2]	P/N for acute sera (individual values) [2]	percent of (IgM) anti-HAV-positive sera immunoreactive with peptide [2]
AGDLESSVDDPRSEEDKRFE [YK-1313]	3/51	broad and strong antigenic reactivity	18/48	37.5	15.79	(3.0-108.06)		
AKKVPETFPELKPGESRHTS [YK-1273]	3/48	broad and strong antigenic reactivity	19/46	41.3	5.15	(3.15-8.58)		
CPKDELRPLEKVLESKTRAI [YK-1411]	0/27		8/41	19.5	8.18	(4.65-17.65)		
DHMSIYKFMGRSHFLCTFTF [YK-1276]	0/46	broad and strong antigenic reactivity	17/41	41.5	4.38	(3.15-5.62)		
DKPGSKKTQGEKFFLIHSAD [YK-1212]	0/46		3/41	7.3	3.5	(3.04-3.96)		
DLDFSAFDASLSPFMIREAG [YK-1419]	1/27		5/41	12.2	5.27	(3.98-8.49)		
DLEEIAANSKDFPNMSETDL [YK-1328]	1/51		6/48	12.5	4.76	(3.74-6.39)		
DRTAVTGASYFTSVDQSSVH [YK-1208]	0/46		5/41	12.2	4.29	(3.27-5.54)		
DSAVAEFFQSFPSGEPSNSK [YK-1369]	1/27		24/41	58.5	21.71	(3.8-42.62)		
DVVLMKVPTIPKFRDITQHF [YK-1382]	0/27		1/41	2.4	8.4			
EDPVLAKKVPETFPELKPGE [YK-1272]	1/46		6/41	14.6	5.4	(4.87-6.12)		
EPLRTSVDKPGSKKTQGEKF [YK-1211]	0/48		21/46	45.7	9.33	(3.37-27.92)		
EVGSHQVEPLRTSVDKPGSK [YK-1210]	0/48		15/46	32.6	7.31	(3.93-20.47)		
FDFQVFPTKYHSGRLLFCFV [YK-1249]	0/48	broadly and strongly immunoreactive	18/46	39.1	5.03	(3.07-7.03)		
FNASDSVGQQIKVIPVDPYF [YK-1242]	0/46	Very weakly reactive	1/41	2.4	3.1			
FPELKPGESRHTSDHMSIYK [YK-1274]	1/48		9/46	19.6	5.31	(3.0-8.47)		

Sequence	Reactivity with negative sera (reactive/tested) [1]	immunoreactivity with anti-HAV-positive sera (in words) [2]	Reactivity with acute sera (reactive/tested) [2]	Reactivity with acute sera (percent of sera reactive) [2] [%]	P/N for acute sera (mean) [2]	P/N for acute sera (range, in parentheses) [2]	P/N for acute sera (individual values) [2]	percent of (IgM) anti-HAV-positive sera immunoreactive with peptide [2]
FPTKYHSGRLLFCFVPGNEL [YK-1250]	0/48	broadly and strongly immunoreactive	17/46	37.0	5.68	(3.4-7.92)		
FQSFPSGEPSNSKLSGFFQS [YK-1370]	1/27		10/41	24.4	8.05	(3.05-18.48)		
FSQAKISLFYTEEHEIMKFS [YK-1319]	2/51		13/48	27.1	3.87	(3.14-5.01)		
FTQCSMNVVSKTLFRKSPIY [YK-1395]	1/27		8/41	19.5	6.52	(3.51-17.52)		
FWRGDLVFDFQVFPTKYHSG [YK-1248]	0/46		3/41	7.3			3.16 and 3.2	
GGIKITHFTTWTSIPTLAAQ [YK-1236]	0/48		22/46	47.8	4.68	(3.1-9.33)		
GITLKQATTAPCAVMDITGV [YK-1252]	0/46		2/41	4.9			3.67 and 17.95	
GLDHILSLADIEEEQMIQSV [YK-1206]	0/46		8/42	19.1	9.46	(3.01-27.07)		
GLVRKNLVQFGVGEKNGCVR [YK-1376]	0/27		3/41	7.3	6.71	(3.8-12.77)		
GQKIVDEFKKLGMTATSADK [YK-1428]	0/27		1/41	2.4	7.28			
HFKDPQYPVWELTIRVWSEL [YK-1222]	0/46		2/41	4.9	4.29			
HFLCTFTFNSNNKEYTFPIT [YK-1279]	1/46		7/41	17.1	3.43	(3.11-3.67)		
HGVTKPKQVIKLDADPVESQ [YK-1374]	0/27	very broad and strong antigenic reactivity	18/41	43.9	10.57	(3.28-29.07)		
QRLKYAQEELSNEVLPPPRKMKGLF [YK-1665]		greater immunoreactivity than Peptide No. YK-1317						
SAVAEFFQSFPSGEPSNSKLSGFFQ [YK-1832]								about 86.0%
WLNPKKINLADRMLGLSGVQEIKEQ [YK-1757]		very strong antigenically reactive						
